Source: US20110212853A1, “NOVEL DIAGNOSTIC METHOD” (PROBIODRUG AG, priority 2010, published 2011)

Legend:
[1] = system: Normal Human Dermal Fibroblasts (NHDF); assay: hMCP-1 N1pE/hMCP-1 ratio by ELISA in OSM+IL1β stimulated NHDF treated with QCI; type: cell-based; settings: 10 μM QCI
Experimental: To capture human MCP-1, commercially available polyclonal antiserum goat anti-hMCP1-AF (R&D Systems, Minneapolis, USA) as capture antibody which specifically binds human MCP-1 was diluted in PBS to 250 ng/ml and immobilized in polystyrene 96-well microtitre plates overnight at 4° C. Thereafter, blocking occurred for 2 hours at room temperature with ELISA Blocker (Thermo Fisher Scientific, Waltham, USA). For preparation of the standard curve recombinant hMCP-1 was incubated with recombinant human Glutaminyl Cyclase (QC) in order to obtain hMCP-1 N1pE. The recombinant hMCP-1 N1pE standard peptide was serially diluted with ELISA Blocker from 1000 pg/ml down to 15.63 pg/ml and added to the wells in duplicate. Two wells filled with ELISA Blocker represent the standard curve value 0 pg/ml. After an incubation period of 2 hours at room temperature, plates were washed at least three times with TBS-T. For detection of hMCP-1 N1pE, the MCP-1 N1pE antibody clone 348-2C9 together with HRP-conjugated anti mouse antibody were both diluted in blocking buffer to final concentrations of 500 ng/ml. For detection of hMCP-1, the antibody mouse anti hMCP-1 (Peprotech, Hamburg, Germany) together with HRP-conjugated anti mouse antibody were also both diluted in blocking buffer to final concentrations of 500 ng/ml. The detection antibody/conjugate solutions were incubated for 2 hours at room temperature. […] Absorption at 450/540 nm was determined by a Tecan Sunrise plate reader.
Quantitative detection of hMCP-1 and hMCP-1 N1pE occurred according to the protocol in […]. […] The cell culture supernatants were analyzed at different time points in order to examine time dependency of hMCP-1 and hMCP-1 N1pE secretion. […]
NHDF have been stimulated with 10 ng/ml OSM, IL1β and simultaneously treated with or without 10 μM QCI for 6 days. […] In order to examine the influence of QCI on hMCP-1 and hMCP-1 N1pE level, the cell culture supernatants were analyzed at different time points according to the ELISA protocol in Example 7.

[2] = system: thioglycollate-induced peritonitis; assay: mMCP-1 N1pE/mMCP-1 ratio and monocyte infiltration in mice treated with thioglycollate and QCI; type: in vivo, mouse; settings: QCI intraperitoneal 30 minutes before thioglycollate
Experimental: To capture mouse MCP-1, commercially available polyclonal antiserum rabbit anti mJE (Peprotech, Hamburg, Germany) as capture antibody which specifically binds mouse MCP-1 was diluted in PBS to 500 ng/ml and immobilized in polystyrene 96-well microtitre plates over 4-7 nights at 4° C. Thereafter, blocking occurred for 2 hours at room temperature with ELISA Blocker (Thermo Fisher Scientific, Waltham, USA). For preparation of the standard curve recombinant mMCP-1 was incubated with mouse Glutaminyl Cyclase (QC) in order to obtain mMCP-1 N1pE. The recombinant mMCP-1 N1pE standard peptide was serially diluted with ELISA Blocker from 1950 pg/ml down to 19.5 pg/ml and added to the wells in duplicate. Two wells filled with ELISA Blocker represent the standard curve value 0 pg/ml. After an incubation period of 2 hours at room temperature, plates were washed at least three times with TBS-T. For detection of mMCP-1 N1pE, the MCP-1 N1pE antibody clone 348-2C9 together with HRP-conjugated anti mouse antibody were both diluted in ELISA Blocker to final concentrations of 500 ng/ml. […] Absorption at 450/540 nm was determined by a Tecan Sunrise plate reader. […]
Thioglycollate was injected intraperitoneal in mice. […] Infiltrated monocytes were counted by FACS analysis via double staining of 7/4 and Ly6G antigens.

RAW 264.7 cells = assay: Western Blot of mMCP-1 N1pE and total mMCP-1 in RAW 264.7 cell culture supernatant; type: cell-based, mouse; settings: RAW 264.7 supernatants, different QCI
Experimental: Stimulation of RAW 264.7 and inhibitor application occurred according to Example 9. For Western Blot analysis, proteins of cell culture supernatants were separated by application to a SDS gel electrophoresis. Separated proteins were electrically transferred to nitrocellulose membranes. Membranes were blocked for one hour with TBST-M (=TBST+5% skimmed milk) at room temperature with gentle shaking. Antibody incubation occurred over night at 4° C. on a rocking platform with the detection antibody for total mMCP-1 (Rat anti mouse MCP-1, R&D Systems) diluted to 1 μg/ml in equal volumes of TBST-M or the detection antibody for mMCP-1 N1pE (clone 332-4B8), respectively. Secondary anti-mouse and anti-rat antibody conjugated with horseradish peroxidase were used for signal detection, following standard procedures.

SMILES: COc1ccc(NC(=S)NCCCn2ccnc2)cc1OC.Cl [QCI, 1-(3-(1H-imidazol-1-yl)propyl)-3-(3,4-dimethoxyphenyl)thiourea hydrochloride]
- hMCP-1 N1pE level after 1-2 days of OSM+IL1β stimulation ([1]; 1-2 days): below the limit of quantitation
- hMCP-1 N1pE level ([1]; OSM+IL1β): decreased
- ratio of hMCP-1 N1pE/hMCP-1 ([1]; OSM+IL1β): about 0,35
- number of infiltrating monocytes to the peritoneum ([2]; FACS, FIG. 23B): decreased number
- mMCP-1 N1pE/mMCP-1 ratio in peritoneal lavage fluid ([2]; lavage after 4 h): dose dependent reduction
- Western Blot signal of mMCP-1 N1pE (RAW 264.7 cells; FIG. 22A): concentration dependent
- Western Blot signal intensity of total mMCP-1 (RAW 264.7 cells; FIG. 22B): no change
